The assay deals with Streptococcus agalactiae 7941. The assay can be described thus: Aronson sepsis model in mice, sulfonamide potentiation compared with trimethoprim. Format: in vivo. To be noted: female mice (groups of 30), lethal dose of Streptococcus agalactiae 7941; treated 2 h after infection with 300 mg 2-Sulfanilamido-4,5-dimethyloxazol + 60 mg test substance; survivors after 44 h divided by survivors of the group given 300 mg 2-Sulfanilamido-4,5-dimethyloxazol + 60 mg Trimethoprim. From the text:
Verwendet man beispielsweise N-[4-Amino-5-(3,4,5-trimethoxybenzyl)-pyrimidin-2-yl]-acetamidsäureäthylester und Anilin als Ausgangsstoffe, so kann der Reaktionsverlauf durch folgendes Formelschema wiedergegeben werden: [drawing 7] 2um Wirksamkeitsnachweis wurden erfindungsgemäße Substanzen im Tierversuch am Modell der sogenannten Aronson-Sepsis, wobei mit Streptococcus agalactiae infiziert wird, geprüft und mit dem bekannten Trimethoprim verglichen. Hierzu wurden Gruppen von je 30 weiblichen Mäusen mit einer tödlichen Dosis von Streptococcus agalactiae 7941 infiziert und 2 Stunden nach der Infektion mit einer Mischung von 300 mg 2-Sulfanilamido-4,5-dimethyloxazol + 60 mg einer der erfindungsgemäßen Substanzen behandelt. Außer einer nicht behandelten Kontrollgruppe wurde eine zweite Gruppe mit dem als Referenzsubstanz dienenden Gemisch von 300 mg 2-Sulfanilamido-4,5-dimethyloxazol + 60 mg Trimethoprim behandelt. Nach 44 Stunden wurde die Zahl der überlebenden Tiere bestimmt und diese Zahl durch die Zahl der überlebenden aus der mit der Referenzsubstanz behandelten Gruppe dividiert. Der so erhaltene Zahlenwert (Trimethoprimfaktor) ist ein Maß für die Wirkung der erfindungsgemäßen Substanzen im Vergleich zum Trimethoprim. F = 2 bedeutet also, daß die Substanz doppelt so wirksam ist wie Trimethoprim. […]

As to `COc1cc(Cc2cnc(N=C(C)N(C)C)nc2N)cc(OC)c1OC` [Beispiel 1], the “F (Trimethoprimfaktor)” value is recorded as 1,2.

Values taken from patent EP0000336A1, “N-benzylpyrimidinyl-amidines, process for their preparation and medicines containing them” (BASF Aktiengesellschaft, priority 1977, dated 1979).
